In assay [1] the target is Aβ1-42 species of different size (Homo sapiens, UniProt P05067). Put plainly: Quantification of density gradient fractions by RP-HPLC. The format is biochemical. An excerpt:
Certain further embodiments of the invention including a method will be presented hereinafter. What is known as the QIAD test (quantitative determination of interference with Aβ aggregate size distribution) can be used for the quantitative analysis of active substances. The method for quantitative analysis of the influence of an active substance on the particle size distribution of amyloid peptides and/or proteins in a sample has the following steps: A beta is first left to aggregate under controlled conditions, so that different A beta aggregates form. The conditions are selected so that a particularly large amount of small, particularly cytotoxic A beta oligomers are formed. […] This change is determined quantitatively. […] Due to the QIAD method, the increase or decrease of A beta aggregates of a specific particle size is measured. […] The concentration of A beta in the respective fractions is then determined by a complete denaturing of the A beta species during a reversed-phase (RP-)HPLC performed subsequently to the fractionation. […] Eluting A beta is detected by means of UV absorption at 215 nm. […] The mean value from a number of experiments carried out independently of one another (for example six) with the resultant standard deviation can be calculated for each fraction. […]
Samples of each fraction from the experiment shown in FIG. 5 were separated and quantified by means of reversed-phase HPLC. […]

The target of assay [2] is T1, Aβ1-42 monomers versus Aβ1-42 oligomers and fibrils (biotinylated, D-enantiomeric, immobilized) (Homo sapiens, UniProt P05067).
T1 construct: biotinylated, D-enantiomeric Aβ1-42 monomers
T1 sequence (P05067 672-713): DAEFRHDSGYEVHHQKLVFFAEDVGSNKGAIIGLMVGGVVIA
As to the kind of experiment: Monoclonal phage ELISA. It is filed as binding. Background: In an ELISA, binding on a coated surface is turned into a signal by an enzyme label.

Square brackets hold non-standard residues; d marks the D form. Peptide text beside a SMILES is read from it.

Sequence of Aβ1-42 species of different size (P05067 672-713 limits assumed): as the sequence (P05067 672-713) above

With `CSCC[C@@H](NC(=O)[C@@H](Cc1c[nH]cn1)NC(=O)[C@@H](Cc1ccc(O)cc1)NC(=O)[C@@H](CO)NC(=O)[C@H](NC(=O)[C@@H](CC(C)C)NC(=O)[C@@H](Cc1ccc(O)cc1)NC(=O)[C@@H](CO)NC(=O)[C@H](N)Cc1ccc(O)cc1)[C@H](C)O)C(=O)N[C@@H](C(=O)N[C@H](Cc1c[nH]c2ccccc12)C(=O)N[C@H](CCCNC(=N)N)C(N)=O)C(C)C` [Mosd1] (H-[dY][dS][dY][dL][dT][dS][dY][dH][dM][dV][dW][dR]-NH2), the “concentration of high-molecular Aβ species (fractions 11-14)” value in assay [1] (10-80 μM Mosd1, 80 μM Aβ1-42) is given as “rises”. In addition, the “concentrations of Aβ in the fractions which contained the toxic oligomers” value in assay [1] (10-80 μM Mosd1, 80 μM Aβ1-42, 3 independent experiments) is “decrease with increasing concentration of Mosd1”. Moreover, the “absorption values (signal strength) for monomeric Aβ1-42” value in assay [2] (individual phage clone, absorption at 450 nm) is given as “highest absorption values for monomeric Aβ1-42 of all tested clones”. Moreover, the “Difference in signal strength between Aβ1-42 monomers (100%) and Aβ1-42 oligomers and fibrils” value in assay [2] (individual phage clones, species immobilized at 320 nM, absorption at 450 nm normalized with 6E10 control, higher = more monomer-specific) is reported as 71.989%. Moreover, the “binding preference for monomeric Aβ1-42 over Aβ1-42 oligomers and fibrils or plastics surface” value in assay [2] (normalized absorption values at 450 nm) is “greatest difference in the absorption values for monomeric Aβ1-42 and oligomeric or fibrillar Aβ1-42”.

Values taken from patent US10239923B2, “Specific amyloid beta binding peptides and the use of same for treating and diagnosing alzheimer's dementia” (Forschungszentrum Juelich GmbH, priority 2015, dated 2019).
